From patent US20260226073A1 (AURIGENE ONCOLOGY LIMITED, priority 2023, published 2026)

Assays:
[1] = molecular target: T1, human recombinant CBL-b (human Biotin CBL-b recombinant protein a.a. 39-426) (Homo sapiens, UniProt Q13191); test: Biochemical assay for CBL-b inhibition (ligand displacement TR-FRET); assay type: binding; conditions: 50 nM CBL-b, 0.3 μM Bodipy FL-Probe, read-out: IC50 (CBL-b inhibition, group)
T1 construct: human Biotin CBL-b recombinant protein a.a; 39-426; Biotin (biotinylated); made in house
Summary of the method: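 Ligand-displacement TR-FRET: 0.3 μM Bodipy FL probe competes with compound for 50 nM biotin-CBL-b (aa 39-426) after a 60 min RT compound pre-incubation; terbium-streptavidin detection, 60 min each step. Dose-response sigmoidal fitting gave IC50 and % maximum inhibition.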

[2] = test system: NFAT signaling pathway in Jurkat NFAT reporter cells; test: Jurkat NFAT reporter assay; assay type: cell-based; conditions: Homo sapiens, 30 min with compound, then soluble anti-human CD3/CD28 antibody for 6 hours, luciferase readout, read-out: EC50 (Group)
Summary of the method: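 Results are expressed as fold change relative to stimulated, inhibitor-free cells. Stimulation was 6 h with soluble anti-human CD3/CD28 antibody after a 30-min exposure of 1×10^5 NFAT-RE luciferase Jurkat reporter cells per well to the Cbl-b inhibitor; signal read by Bio-Glo bioluminescence.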

T1 sequence (Q13191 39-426): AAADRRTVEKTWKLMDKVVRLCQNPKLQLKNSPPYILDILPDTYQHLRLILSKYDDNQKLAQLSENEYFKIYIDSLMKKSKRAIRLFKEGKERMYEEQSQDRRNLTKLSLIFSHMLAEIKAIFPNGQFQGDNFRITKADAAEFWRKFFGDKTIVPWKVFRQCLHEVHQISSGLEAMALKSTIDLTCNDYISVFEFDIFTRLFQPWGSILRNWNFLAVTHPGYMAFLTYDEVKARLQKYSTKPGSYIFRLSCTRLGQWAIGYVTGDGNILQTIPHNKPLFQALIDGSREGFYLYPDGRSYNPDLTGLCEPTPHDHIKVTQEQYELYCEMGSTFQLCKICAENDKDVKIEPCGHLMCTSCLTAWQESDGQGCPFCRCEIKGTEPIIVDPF

SMILES | IC50 [1] | EC50 [2]
CC1CN(Cc2cc(Cl)nc(N3Cc4ccc(C5(Cc6nncn6C)COC5)cc4C3=O)c2)CC1F (stereo not shown) [Compound 197] | < 80 nM | 300 to 1000 nM
Cc1nc(N2Cc3ccc(C4(Cc5nncn5C)COC4)cc3C2=O)cc(CNCC2CC2)c1F [Compound 198] | < 80 nM | 1000 to 10000 nM
CC(NCC1CC1(F)F)c1cc(Cl)nc(N2Cc3ccc(C4(Cc5nncn5C)COC4)cc3C2=O)c1 (stereo not shown) [Compound 199, 2-(6-Chloro-4-(1-(((2,2-difluorocyclopropyl)methyl)amino)ethyl)pyridin-2-yl)-6-(3-((4-methyl-4H-1,2,4-triazol-3-yl)methyl)oxetan-3-yl)isoindolin-1-one] | < 80 nM | < 300 nM
Cn1cnnc1CC1(c2ccc3c(c2)C(=O)N(c2cc(CNC4CCCC4)cc(Cl)n2)C3)COC1 [Compound 201, 2-(6-Chloro-4-((cyclopentylamino)methyl)pyridin-2-yl)-6-(3-((4-methyl-4H-1,2,4-triazol-3-yl)methyl)oxetan-3-yl)isoindolin-1-one] | < 80 nM | < 300 nM
CC(CNCc1cc(Cl)nc(N2Cc3ccc(C4(Cc5nncn5C)COC4)cc3C2=O)c1)C(F)(F)F (stereo not shown) [Compound 202, 2-(6-Chloro-4-(((3,3,3-trifluoro-2-methylpropyl)amino)methyl)pyridin-2-yl)-6-(3-((4-methyl-4H-1,2,4-triazol-3-yl)methyl)oxetan-3-yl)isoindolin-1-one] | < 80 nM | < 300 nM
CC(NCc1cscn1)c1cc(Cl)nc(N2Cc3ccc(C4(Cc5nncn5C)COC4)cc3C2=O)c1 (stereo not shown) [Compound 205] | < 80 nM | < 300 nM
Cn1cnnc1CC1(c2ccc3c(c2)C(=O)N(c2cc(CNCC4(O)CCC4)cc(Cl)n2)C3)COC1 [Compound 216] | < 80 nM | 1000 to 10000 nM
CC(NCC1CC1)c1cc(Cl)nc(N2Cc3ccc(C4(Cc5nncn5C)CC(C#N)C4)cc3C2=O)c1 (stereo not shown) [Compound 225, 3-(2-(6-Chloro-4-(1-((cyclopropylmethyl)amino)ethyl)pyridin-2-yl)-3-oxoiso-indolin-5-yl)-3-((4-methyl-4H-1,2,4-triazol-3-yl)methyl)cyclobutane-1-carbonitrile] | < 80 nM | < 300 nM
Cn1cnnc1CC1(c2ccc3c(c2)C(=O)N(c2cc(CNCC4CC(F)(F)C4)cc(Cl)n2)C3)CC(C#N)C1 (stereo not shown) [Compound 227, 3-(2-(6-Chloro-4-((((3,3-difluorocyclobutyl)methyl)amino)methyl)pyridin-2-yl)-3-oxoisoindolin-5-yl)-3-((4-methyl-4H-1,2,4-triazol-3-yl)methyl)cyclobutane-1-carbo-nitrile] | < 80 nM | 300 to 1000 nM
Cn1cnnc1CC1(c2ccc3c(c2)C(=O)N(c2cc(CNCC4CC4(F)F)cc(Cl)n2)C3)CC(C#N)C1 (stereo not shown) [Compound 230, 3-(2-(6-Chloro-4-((((2,2-difluorocyclopropyl)methyl)amino)methyl)pyridin-2-yl)-3-oxoisoindolin-5-yl)-3-((4-methyl-4H-1,2,4-triazol-3-yl)methyl)cyclobutane-1-carbonitrile] | < 80 nM | 300 to 1000 nM
Cn1cnnc1CC1(c2ccc3c(c2)C(=O)N(c2cc(CNc4nccs4)cc(Cl)n2)C3)COC1 [Compound 237] | < 80 nM | 1000 to 10000 nM
CC(NC(C)(C)C1CC1)c1cc(Cl)nc(N2Cc3ccc(C4(Cc5nncn5C)COC4)cc3C2=O)c1 (stereo not shown) [Compound 248] | < 80 nM | < 300 nM
CCC(NC1CCCC1)c1cc(Cl)nc(N2Cc3ccc(C4(Cc5nncn5C)COC4)cc3C2=O)c1 (stereo not shown) [Compound 251, 2-(6-Chloro-4-(1-(cyclopentylamino)propyl)pyridin-2-yl)-6-(3-((4-methyl-4H-1,2,4-triazol-3-yl)methyl)oxetan-3-yl)isoindolin-1-one] | < 80 nM | < 300 nM
COC1CCCC1NCc1cc(Cl)nc(N2Cc3ccc(C4(Cc5nncn5C)COC4)cc3C2=O)c1 (stereo not shown) [Compound 253, 2-(6-Chloro-4-(((2-methoxycyclopentyl)amino)methyl)pyridin-2-yl)-6-(3-((4-methyl-4H-1,2,4-triazol-3-yl)methyl)oxetan-3-yl)isoindolin-1-one] | < 80 nM | < 300 nM
Cn1cnnc1CC1(c2ccc3c(c2)C(=O)N(c2cc(CNCC4CC4)cc(Cl)n2)C3)CC2(CCC2)C1 [Compound 255, 2-(6-Chloro-4-(((cyclopropylmethyl)amino)methyl)pyridin-2-yl)-6-(2-((4-methyl-4H-1,2,4-triazol-3-yl)methyl)spiro[3.3]heptan-2-yl)isoindolin-1-one] | < 80 nM | 1000 to 10000 nM
Cc1cc(CNCC2CC2)cc(N2Cc3c(cc(-c4ccc(F)cc4-c4nncn4C)cc3C(F)(F)F)C2=O)n1 [Compound 256, 2-(4-(((Cyclopropylmethyl)amino)methyl)-6-methylpyridin-2-yl)-6-(4-fluoro-2-(4-methyl-4H-1,2,4-triazol-3-yl)phenyl)-4-(trifluoromethyl)isoindolin-1-one] | < 80 nM | 1000 to 10000 nM
Cc1cc(CN2CCC3(CC3)C2)cc(N2Cc3ccc(-c4ccc(F)cc4-c4nncn4C)cc3C2=O)n1 [Compound 259] | < 80 nM | 1000 to 10000 nM
Cc1cc(CNCC2CC(F)(F)C2)cc(N2Cc3ccc(-c4ccc(F)cc4-c4nncn4C)cc3C2=O)n1 [Compound 260, 2-(4-((((3,3-Difluorocyclobutyl)methyl)amino)methyl)-6-methylpyridin-2-yl)-6-(4-fluoro-2-(4-methyl-4H-1,2,4-triazol-3-yl)phenyl)isoindolin-1-one] | < 80 nM | < 300 nM
Cc1nc(N2Cc3ccc(-c4ccc(F)cc4-c4nncn4C)cc3C2=O)cc(CNCC2CC2)c1F [Compound 261, 2-(4-(((Cyclopropylmethyl)amino)methyl)-5-fluoro-6-methylpyridin-2-yl)-6-(4-fluoro-2-(4-methyl-4H-1,2,4-triazol-3-yl)phenyl)isoindolin-1-one] | < 80 nM | 1000 to 10000 nM
Cc1cc(CNCC2CC2)cc(N2Cc3ccc(-c4c(F)cc(F)cc4-c4nncn4C)cc3C2=O)n1 [Compound 262] | < 80 nM | < 300 nM
Cc1cc(CNCC2CC2)cc(N2Cc3ccc(-c4ncc(Cl)cc4-c4nncn4C)cc3C2=O)n1 [Compound 263, 6-(5-Chloro-3-(4-methyl-4H-1,2,4-triazol-3-yl)pyridin-2-yl)-2-(4-(((cyclo-propylmethyl)amino)methyl)-6-methylpyridin-2-yl)isoindolin-1-one] | < 80 nM | 1000 to 10000 nM
Cn1cnnc1-c1cc(F)ccc1-c1ccc2c(c1)C(=O)N(c1cc(CNCC3CC3)cc(C(F)(F)F)n1)C2 [Compound 265, 2-(4-(((Cyclopropylmethyl)amino)methyl)-6-(trifluoromethyl)pyridin-2-yl)-6-(4-fluoro-2-(4-methyl-4H-1,2,4-triazol-3-yl)phenyl)isoindolin-1-one] | < 80 nM | < 300 nM
Cc1cc(CNCC2CC2(F)F)cc(N2Cc3ccc(-c4ccc(Cl)cc4-c4nncn4C)cc3C2=O)n1 (stereo not shown) [Compound 269] | < 80 nM | 300 to 1000 nM
COc1ccc(-c2ccc3c(c2)C(=O)N(c2cc(CNCC4CC4)cc(C)n2)C3)c(-c2nncn2C)c1 [Compound 273, 2-(4-(((Cyclopropylmethyl)amino)methyl)-6-methylpyridin-2-yl)-6-(4-methoxy-2-(4-methyl-4H-1,2,4-triazol-3-yl)phenyl)isoindolin-1-one] | < 80 nM | 1000 to 10000 nM
Cc1cc(CNCC2CCC2)cc(N2Cc3ccc(-c4ccc(Cl)cc4-c4nncn4C)cc3C2=O)n1 [Compound 274, 6-(4-Chloro-2-(4-methyl-4H-1,2,4-triazol-3-yl)phenyl)-2-(4-(((cyclobutyl-methyl)amino)methyl)-6-methylpyridin-2-yl)isoindolin-1-one] | < 80 nM | < 300 nM
Cn1cnnc1-c1cc(Cl)ccc1-c1ccc2c(c1)C(=O)N(c1cc(C(C)(C)NCC3CC3)cc(Cl)n1)C2 [Compound 275, 6-(4-Chloro-2-(4-methyl-4H-1,2,4-triazol-3-yl)phenyl)-2-(6-chloro-4-(2-((cyclopropylmethyl)amino)propan-2-yl)pyridin-2-yl)isoindolin-1-one] | < 80 nM | < 300 nM
Cc1ccc(-c2ccc3c(c2)C(=O)N(c2cc(CNCC4CC4)cc(C)n2)C3)c(-c2nncn2C)c1 [Compound 277, 2-(4-(((Cyclopropylmethyl)amino)methyl)-6-methylpyridin-2-yl)-6-(4-methyl-2-(4-methyl-4H-1,2,4-triazol-3-yl)phenyl)isoindolin-1-one] | < 80 nM | 1000 to 10000 nM
Cc1cc(C(C)NCC2CCC2)cc(N2Cc3ccc(-c4ccc(Cl)cc4-c4nncn4C)cc3C2=O)n1 (stereo not shown) [Compound 278, 6-(4-Chloro-2-(4-methyl-4H-1,2,4-triazol-3-yl)phenyl)-2-(4-(1-((cyclobutyl-methyl)amino)ethyl)-6-methylpyridin-2-yl)isoindolin-1-one] | < 80 nM | < 300 nM
Cc1cc(CNCC2CC(F)(F)C2)cc(N2Cc3ccc(-c4ccc(Cl)cc4-c4nncn4C)cc3C2=O)n1 [Compound 279, 6-(4-Chloro-2-(4-methyl-4H-1,2,4-triazol-3-yl)phenyl)-2-(4-((((3,3-difluoro-cyclobutyl)methyl)amino)methyl)-6-methylpyridin-2-yl)isoindolin-1-one] | < 80 nM | < 300 nM
